Experimental data taken from PubChem BioAssay AID1963835 (Molecular Pharmacology Branch, DTP, NCI, 2024).
Several values for one entry are separate records, joined by “and”; a condition that tells them apart may be missing. Equal values may be shown once.

Test system: 699152-130-R-J1-PDC complex spheroid viability
Test: Anticancer human tumor 699152-130-R-J1-PDC patient-derived pancreatic carcinoma cell line growth inhibition [POLQ]
Conditions: for viability, T/C: stronger effect = lower value
Experimental: Multicellular complex tumor spheroid response to Polymerase (POL) inhibitors (novobiocin, ART-558, RP6685) in combination with a variety of drugs and investigational agents in selected tumor cell lines
The POL inhibitors (novobiocin, ART-558, and RP6685) were evaluated both individually and in combination with standard of care and investigational anticancer small molecules within a complex spheroid model of solid tumors. . Complex spheroids include a stromal component modeled by human endothelial cells (HUVEC) and fibroblasts modeled by human mesenchymal stem cells (MSCs). The concentration ranges selected for each drug and investigational agent were based upon clinically achievable concentrations if the clinical Cmax of the agent was known.
Compounds. The drugs and investigational agents: novobiocin (NSC847541), ART-558 (NSC835418), RP-6685 (NSC848927), peposertib (NSC802822), ceralasertib (NSC780249), elimusertib (NSC800525), camonsertib (NSC841442), AZD-1390 (NSC803789), olaparib (NSC753686), talazoparib (NSC767125), rucaparib (NSC756644), sotorasib (NSC818433), MRTX-1133 (NSC836407), SN-38 (NSC673596), topotecan (NSC609699), epotoside (NSC141540), doxorubicin (NSC123127), gemcitabine (NSC613327), 5-fluorouracil (NSC19893), paclitaxel (NSC125973), vemurafenib (NSC761431), MSA-2 (NSC828583), SN-011 (NSC837082), adavosertib (NSC754352), prexasertib (NSC758257), carboplatin (NSC241240) and oxaliplatin (NSC266046), were obtained from the National Cancer Institute (NCI) Developmental Therapeutics Program Chemical Repository (21). The FDA-approved anticancer drug set is available from the Developmental Therapeutics Program at https://dtp.cancer.gov/organization/dscb/obtaining/. […] The stock solutions were prepared in dimethyl sulfoxide (DMSO, Sigma-Aldrich, St. Louis, MO, cat. D2650), except for the platinum compounds which were prepared in saline (Quality Biological, Gaithersburg, MD, cat. 114-055-101), at 800-fold the tested concentration and stored at -70 degrees C prior to their use. All drugs and investigational agents were tested over a range starting from a high concentration at or near the clinical Cmax and decreasing in half-log increments. If the clinical Cmax for an agent had not been determined, the highest concentration tested was 10 microM, except for SN-38, which was tested at a high concentration of 1 microM.
Cell Culture. All cells were maintained in an incubator at 37 degrees C and 5% CO2 with 95% humidity. The PDC lines were cultured according to standard operating procedures established by the NCI PDMR (https://pdmr.cancer.gov). Table 3 of the manuscript, lists the cell lines along with the number of the three cell types plated to form the mct-spheroids and media for tumor cell growth. After thawing, all PDC lines, except 997537-175-T-J1-PDC and 415267-285-R-J2-PDC, were cultured in Matrigel-coated flasks prepared with a working solution of 1X Ham's F-12 nutrient mix, without supplementation (Thermo Fisher Scientific, cat. 11765054), 100 U/mL penicillin-streptomycin (Thermo Fisher Scientific, cat. 15140122), and 2.5% Matrigel (Corning Inc., Corning, NY, cat. 354248) for the first three passages. The two PDC lines 997537-175-T-J1-PDC and 415267-285-R-J2-PDC were cultured on uncoated flasks. The 857933-349-R-J2-PDC line was cultured in 6C/Colon 1B media containing advanced DMEM/F-12 (Thermo Fisher Scientific, cat. 12634028), 10 mM HEPES (Thermo Fisher Scientific, cat. 15630080), 1X GlutaMAX supplement (Thermo Fisher Scientific, cat. 35050061), 0.1 mg/mL primocin (InvivoGen, San Diego, CA, cat. ant-pm-2), 10% defined fetal bovine serum, heat inactivated (HyClone Laboratories Inc., Logan, UT, cat. SH30070.03HI), 50% L-WRN conditioned media (ATCC, cat. CRL-3276), 1.25 mM N-Acetyl-L-cysteine (Sigma-Aldrich, cat. A9165), 10 mM nicotinamide (Sigma-Aldrich, cat. N0636), 1X B-27 supplement (Thermo Fisher Scientific, cat. 17504044), 1X N-2 supplement (Thermo Fisher Scientific, cat. […]
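Further: spheroids exposed to agents for 7 days before viability reading.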
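Wherever viability, T/C is given: percent of DMSO vehicle control viability so 100% = vehicle and 0% = no viable signal.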

CC1COCCN1c1cc(-c2ccnn2C)c2ccnc(-c3ccn[nH]3)c2n1 (stereo not drawn)
viability, T/C (compound 0.0316 µM): 94.9% and 97.6% and 88.8%
viability, T/C (compound 0.1 µM): 89.1% (2×) and 80.8%
viability, T/C (compound 0.316 µM): 71.1% and 68.5% and 77.8%
viability, T/C (compound 1 µM): 63.7% and 58.2% and 58.9%
viability, T/C (compound 3.16 µM): 49% and 54.1% and 49.1%
viability, T/C (compound 10 µM): 56.3% and 58.4% and 50.5%
IC50 (curve of compound): > 10 µM and 5.9 µM

COc1ccc([C@@H](O)c2cc(-c3ncnc4cc(N5CCOCC5)ccc34)c(F)cc2Cl)nn1 + Nc1ccc(C#CCN(C(=O)Cc2ncc(C(F)(F)F)cc2C(F)(F)F)c2ccc(F)cc2)nn1
IC50 (curve of first compound, second compound 0.0316 µM): 3.01 µM
IC50 (curve of first compound, second compound 0.1 µM): 2.89 µM
IC50 (curve of first compound, second compound 0.316 µM): 3.05 µM
IC50 (curve of first compound, second compound 1 µM): 3.39 µM
IC50 (curve of first compound, second compound 3.16 µM): 3.54 µM
IC50 (curve of first compound, second compound 10 µM): 3.89 µM
viability, T/C (second compound 0.0316 µM, first compound 0.0316 µM): 89.7%
viability, T/C (second compound 0.0316 µM, first compound 0.1 µM): 95.3%
viability, T/C (second compound 0.0316 µM, first compound 0.316 µM): 82.5%
viability, T/C (second compound 0.0316 µM, first compound 1 µM): 78.8%
viability, T/C (second compound 0.0316 µM, first compound 3.16 µM): 48.1%
viability, T/C (second compound 0.0316 µM, first compound 10 µM): 19.2%
viability, T/C (second compound 0.1 µM, first compound 0.0316 µM): 95.2%
viability, T/C (second compound 0.1 µM, first compound 0.1 µM): 93.3%
viability, T/C (second compound 0.1 µM, first compound 0.316 µM): 91.1%
viability, T/C (second compound 0.1 µM, first compound 1 µM): 76.4%
viability, T/C (second compound 0.1 µM, first compound 3.16 µM): 47.9%
viability, T/C (second compound 0.1 µM, first compound 10 µM): 25.5%
viability, T/C (second compound 0.316 µM, first compound 0.0316 µM): 114%
viability, T/C (second compound 0.316 µM, first compound 0.1 µM): 93.2%
viability, T/C (second compound 0.316 µM, first compound 0.316 µM): 92.5%
viability, T/C (second compound 0.316 µM, first compound 1 µM): 70.9%
viability, T/C (second compound 0.316 µM, first compound 3.16 µM): 50.2%
viability, T/C (second compound 0.316 µM, first compound 10 µM): 19.3%
viability, T/C (second compound 1 µM, first compound 0.0316 µM): 99.5%
viability, T/C (second compound 1 µM, first compound 0.1 µM): 100%
viability, T/C (second compound 1 µM, first compound 0.316 µM): 96.7%
viability, T/C (second compound 1 µM, first compound 1 µM): 85.9%
viability, T/C (second compound 1 µM, first compound 3.16 µM): 51.8%
viability, T/C (second compound 1 µM, first compound 10 µM): 22.5%
viability, T/C (second compound 3.16 µM, first compound 0.0316 µM): 101%
viability, T/C (second compound 3.16 µM, first compound 0.1 µM): 92.6%
viability, T/C (second compound 3.16 µM, first compound 0.316 µM): 90.5%
viability, T/C (second compound 3.16 µM, first compound 1 µM): 83.4%
viability, T/C (second compound 3.16 µM, first compound 3.16 µM): 52.2%
viability, T/C (second compound 3.16 µM, first compound 10 µM): 21.8%
viability, T/C (second compound 10 µM, first compound 0.0316 µM): 116%
viability, T/C (second compound 10 µM, first compound 0.1 µM): 105%
viability, T/C (second compound 10 µM, first compound 0.316 µM): 104%
viability, T/C (second compound 10 µM, first compound 1 µM): 84%
viability, T/C (second compound 10 µM, first compound 3.16 µM): 54.9%
viability, T/C (second compound 10 µM, first compound 10 µM): 26%

COc1cc(C2c3cc4c(cc3C(OC3OC5COC(C)OC5C(O)C3O)C3COC(=O)C23)OCO4)cc(OC)c1O (stereo not drawn)
viability, T/C (compound 0.0316 µM): 105% and 94.4% and 87.1%
viability, T/C (compound 0.1 µM): 90.3% and 87% and 86.1%
viability, T/C (compound 0.316 µM): 76.8% and 81.6% and 71.8%
viability, T/C (compound 1 µM): 73.7% and 79.2% and 62.8%
viability, T/C (compound 3.16 µM): 59.8% and 63.5% and 52.7%
viability, T/C (compound 10 µM): 53.1% and 44% and 40.2%
IC50 (curve of compound): > 10 µM and 7.19 µM and 3.71 µM

O=C(c1cc(Cc2n[nH]c(=O)c3ccccc23)ccc1F)N1CCN(C(=O)C2CC2)CC1
viability, T/C (compound 0.0316 µM): 101% and 104% and 103%
viability, T/C (compound 0.1 µM): 99.6% and 92.1% and 91.6%
viability, T/C (compound 0.316 µM): 100% and 98% and 95.9%
viability, T/C (compound 1 µM): 93.5% and 90.7% and 103%
viability, T/C (compound 3.16 µM): 91.4% and 87.8% and 91.5%
viability, T/C (compound 10 µM): 71.4% and 59.8% and 88.3%
IC50 (curve of compound): > 10 µM
